This is an account of results in patent US20230190924A1, “ANTIGEN OF ALLERGY AND EPITOPE THEREOF” (HOYU CO., LTD., priority 2017, published 2023).

The subject of test [1] is IgE antibodies from patients. In words: Epitope mapping (2) overlapping (10-amino-acid peptides) and (3) alanine scanning on peptide arrays. Format: binding, human. The note with it: for region within the epitope important for binding to IgE antibodies from patients: procedures (B) overlapping and (C) alanine scanning; for binding to IgE antibodies from patients, sequence comprising a region amino-terminally adjacent to the epitope / binding to IgE antibodies from patients, sequence comprising a region carboxy-terminally adjacent to the epitope: overlapping peptides with flanking sequence. Summed up: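 Overlapping 10-mer peptides shifted by one residue, and alanine-substituted peptides, spotted on cellulose and probed with patient and non-egg-allergic sera; IgE binding read by anti-human IgE-HRP chemiluminescence. Signal expressed relative to parent sequence and graded in bands from <20% (no binding) to ≥90% (retained binding).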

Test [2] concerns IgE antibody in the serum of an egg allergic patient. In words: Immunoblotting of two-dimensional electrophoresis of chicken egg (raw egg) yolk proteins with patient serum. It counts as binding, human. Particulars: serum of egg-allergic patient 1 (food-dependent exercise-induced anaphylaxis), versus non-egg-allergic serum. As to the method: Identification of antigens by immunoblotting was carried out by taking all the steps up to the step of “Second-dimensional SDS-PAGE” as described above in Example 1, followed by the steps of “Transfer to membrane”, “Immunoblotting” and “Analysis” as described below.
Transfer to membrane was done using the following transfer system and transfer buffer. • Transfer system: XCell SureLock Mini-Cell and XCell II Blot Module (produced by Life Technologies) • Transfer buffer: NuPAGE Transfer Buffer (X20) (produced by Life Technologies), used in a form diluted 20-fold with milliQ water.
To be specific, proteins in the two-dimensional electrophoresis gels were transferred to a membrane (PVDF membrane) according to the following procedure.
(1) The PVDF membrane was immersed in 100% methanol followed by milliQ water, and then moved into the transfer buffer to hydrophilize the PVDF membrane.
(2) After sponge, filter paper, gels treated by second-dimensional SDS-PAGE, the hydrophilized PVDF membrane, filter paper, and sponge were put in place in this order, the transfer system was energized at a constant voltage of 30 V for one hour.
Immunoblotting of the membrane was carried out using, as a primary antibody, a serum sample from patient (patient 1) with an egg allergy or a serum sample from a non-egg-allergic subject. This egg-allergic patient was a patient diagnosed with food-dependent exercise-induced anaphylaxis (FDEIA) caused by chicken eggs.
Immunoblotting of the membrane was carried out according to the following procedure. • (1) The transferred membrane was shaken in a 5% skim milk/PBST solution (a PBS buffer containing 0.1% Tween 20 nonionic surfactant) at room temperature for one hour. • (2) The membrane was left to stand in a solution of 5% primary antibody serum in 5% skim milk/PBST at room temperature for one hour. • (3) The membrane was washed with a PBST solution (5 min.×3 times). • (4) The membrane was left to stand in a 1:5000 dilution of the secondary antibody, anti-human IgE-HRP (horseradish peroxidase), with a 5% skim milk/PBST solution at room temperature for one hour. • (5) The membrane was washed with a PBST solution (5 min.×3 times). • (6) The membrane was left to stand in Pierce Western Blotting Substrate Plus (produced by Thermo) for 5 minutes. […]
The immunoblots obtained with the serum from the egg-allergic patient were compared with those obtained with the control serum from the non-egg-allergic subject. By immunoblotting of the proteins contained in the raw yolk using the serum from the egg-allergic patient (FIG. 2), three spots were detected, which are different from the spots detected when the serum of the non-egg-allergic subject was used and different from those of the known chicken egg allergen proteins.
Identification of antigens by immunoblotting was carried out using the sera of three other egg-allergic patients (patient 2, patient 3 and patient 4) in the same manner as in Example 2. By immunoblotting of the proteins contained in the raw yolk using the serum from the egg-allergic patients (FIG. 4 for patient 2, FIG. 5 for patient 3, and FIG. 6 for patient 4), spots were detected, which are different from the spots detected when the serum of the non-egg-allergic subject was used and different from those of the known chicken egg allergen proteins. To be specific, spots 4 to 8 for patient 2, spots 9 and 10 for patient 3, and spot 11 for patient 4 were detected.

Turning to “SEQ ID NO: 617: region in epitope 39 (LLDR; epitope)”, in test [1], the “region within the epitope important for binding to IgE antibodies from patients” value (from here on “region within the epitope important”) is given as “important for binding”.

Turning to “SEQ ID NO: 619: region in epitope 39 (DRKVALTDMT; epitope)”, the “region within the epitope important” value in test [1] was “important for binding”. On to “SEQ ID NO: 622: sequence comprising a region amino-terminally adjacent to epitope 40 (GRYLHLAAV; epitope)”, for which, in test [1], the “binding to IgE antibodies from patients, sequence comprising a region amino-terminally adjacent to the epitope” value is listed as “binding to IgE antibodies from patients”. Same read-out and setting: in the case of “SEQ ID NO: 623: sequence comprising a region amino-terminally adjacent to epitope 40 (GRYLHLAAVN; epitope)” it was “binding to IgE antibodies from patients”.

For the molecule “SEQ ID NO: 624: sequence comprising a region carboxy-terminally adjacent to epitope 40 (KLEFLLSKK; epitope)”, the “binding to IgE antibodies from patients, sequence comprising a region carboxy-terminally adjacent to the epitope” value in test [1] was “binding to IgE antibodies from patients”. “SEQ ID NO: 627: region in epitope 41 (SGYLKMFG; epitope)”: the “region within the epitope important” value in test [1] was “important for binding”.

As to “SEQ ID NO: 630: region in epitope 41 (YLKMFGQELL; epitope)”, the “region within the epitope important” value in test [1] is listed as “important for binding”. With “SEQ ID NO: 631: sequence comprising a region carboxy-terminally adjacent to epitope 41 (QELLFGRLD; epitope)”, the “binding to IgE antibodies from patients, sequence comprising a region carboxy-terminally adjacent to the epitope” value in test [1] is recorded as “binding to IgE antibodies from patients”. On the same count and under the same terms, in the case of “SEQ ID NO: 632: sequence comprising a region carboxy-terminally adjacent to epitope 41 (QELLFGRLDK; epitope)” it was “binding to IgE antibodies from patients”. As for “SEQ ID NO: 636: region in epitope 41 (SGYLKMFG; epitope)”, in test [1], the “region within the epitope important” value is “important for binding”. Still for that read-out and setting: in the case of “SEQ ID NO: 641: region in epitope 41 (SGYLKMF; epitope)” it was “important for binding”. On the same count and under the same terms, in the case of “SEQ ID NO: 642: region in epitope 41 (GQELL; epitope)” it was “important for binding”. As for “SEQ ID NO: 644: sequence comprising a region amino-terminally adjacent to epitope 42 (QELLFGRL; epitope)”, the “binding to IgE antibodies from patients, sequence comprising a region amino-terminally adjacent to the epitope” value in test [1] is “binding to IgE antibodies from patients”. Regarding “SEQ ID NO: 647: region in epitope 42 (RLDKDTLQ; epitope)”, the “region within the epitope important” value in test [1] is “important for binding”.

“SEQ ID NO: 649: region in epitope 42 (DTLQNVLQ; epitope)”: the “region within the epitope important” value in test [1] is “important for binding”. In the case of “SEQ ID NO: 657: sequence comprising a region amino-terminally adjacent to epitope 46 (VPDIMKMSFD; epitope)”, the “binding to IgE antibodies from patients, sequence comprising a region amino-terminally adjacent to the epitope” value in test [1] is listed as “binding to IgE antibodies from patients”. With “SEQ ID NO: 658: region in epitope 46 (MKMSFDSDS; epitope)”, the “region within the epitope important” value in test [1] is reported as “important for binding”.

“SEQ ID NO: 659: region in epitope 46 (MSFDSDSASG; epitope)”: the “region within the epitope important” value in test [1] is on record as “important for binding”. As to “SEQ ID NO: 660: sequence comprising a region carboxy-terminally adjacent to epitope 46 (DSDSASGET; epitope)”, in test [1], the “binding to IgE antibodies from patients, sequence comprising a region carboxy-terminally adjacent to the epitope” value is given as “binding to IgE antibodies from patients”. With “SEQ ID NO: 663: region in epitope 46 (PDIMKMSFDS; epitope)”, the “region within the epitope important” value in test [1] is on record as “important for binding”.

“SEQ ID NO: 664: region in epitope 46 (MSFDSDS; epitope)”: in test [1], the “region within the epitope important” value is reported as “important for binding”.

As to “SEQ ID NO: 665: sequence comprising a region carboxy-terminally adjacent to epitope 46 (SDSASGET; epitope)”, the “binding to IgE antibodies from patients, sequence comprising a region carboxy-terminally adjacent to the epitope” value in test [1] is listed as “binding to IgE antibodies from patients”. Consider “SEQ ID NO: 669: region in epitope 47 (YSDVPIEKI; epitope)”, for which the “region within the epitope important” value in test [1] is recorded as “important for binding”.

For “SEQ ID NO: 672: sequence comprising a region amino-terminally adjacent to epitope 47 (MSFKPVYSDV; epitope)”, in test [1], the “binding to IgE antibodies from patients, sequence comprising a region amino-terminally adjacent to the epitope” value is given as “binding to IgE antibodies from patients”. For “SEQ ID NO: 674: region in epitope 47 (YSDVPIEK; epitope)”, the “region within the epitope important” value in test [1] is on record as “important for binding”. In the case of “SEQ ID NO: 676: sequence comprising a region carboxy-terminally adjacent to epitope 47 (PIEKIQVTI; epitope)”, in test [1], the “binding to IgE antibodies from patients, sequence comprising a region carboxy-terminally adjacent to the epitope” value is listed as “binding to IgE antibodies from patients”. “SEQ ID NO: 680: region in epitope 47 (SFKPVY; epitope)”: the “region within the epitope important” value in test [1] is “important for binding”.

B1: Spot 3: Central sequence of vitellogenin-1, or C-terminal portion (SEQ ID NO: 18) of lipovitellin-1 (protein)
chain: DKPFASGYLKMFGQELLFGRLDKDTLQNVLQVWYGPDEKIPSIRRLISSLQTGIGRQWTKALLLSEIRCIVPTCVGFPMETSFYYSSVTKVAGNVQAQITPSPRSDFRLTELLNSNVRLRSKMSLSMAKHMTFVIGINTNMIQAGLEAHTKVNAHVPVNVVATIQMKEKSIKAEIPPCKEETNLIIVSSKTFAVTRNIEDLAASKMTPVLLPEAVPDIMKMSFDSDSASGETDNIRDRQSVEDVSSGNSFSFGHPSSGKEPFIQSMCSNASTFGVQVCIEKKSVHAAFIRNVPLYNAIGEHALRMSFKPVYSDVPIEKIQVTIQAGDQAPTK
Consider B1, for which, in test [2], the “specific reaction/binding of serum IgE with spot in immunoblot” value is given as “specifically reacted”.

B2: vitellogenin-3 (protein)
chain: SIIENLKARCSVSQNMITTFNGVEFNYSMPANCYHILAQDCSPELKFLVMMKRLGESADLTAISVRLASHEVDMYVSNGLIQLKINGVQTPTDVPYTSKSGLLISSEKEGLSLKAPEYGVEKLYYDRRKLEIRVAFWMVGKTCGICGKYDAEKKREYQMPSGYLAKDAVSFAQSWVISEDTCTGACKLQRKFVKIEKPVAFNKKASKCFSIEPVLRCAEGCSATRTVPVSVGFHCVPSDSTLELEEEQVRLDQKSEDLVSRVDAHTACSCAQQLCSA
With B2, the “specific reaction/binding of serum IgE with spot in immunoblot” value in test [2] is reported as “specifically reacted”.
